Values joined by “and” are separate entries in the source; they are usually repeats but may differ in a detail not shown here. Equal entries are not always repeated. Inconclusive results and toxic doses are left out.
Test system: P388 leukemia ip, CD2F1 mice, survival T/C
Assay: NCI In Vivo Anticancer Drug Screen. Data for tumor model P388 Leukemia (intraperitoneal) in CD2F1 (CDF1) mice
Conditions: endpoint: median survival time, higher = longer survival
Outline: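 Mice carrying the transplanted tumor received test compound or vehicle. Survival was recorded in each group, and the value is the treated-group measurement divided by that of the vehicle-treated control group.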

[1] = dose: 50.0 mg/kg/injection, schedule: Q01DX005 (ip), vehicle: saline with Tween-80
[2] = dose: 50.0 mg/kg/injection, schedule: Q01DX009 (ip), vehicle: saline with Tween-80
[3] = dose: 100.0 mg/kg/injection, schedule: Q04DX003 (ip), vehicle: saline with Tween-80

CC(=O)NOCC1NC(=O)C(CONC(C)=O)NC1=O (stereo not given)
T/C (dose: 30.0 mg/kg/injection, schedule: Q01DX005 (ip), vehicle: saline): 103 % of control | T/C (dose: 60.0 mg/kg/injection, schedule: Q01DX005 (ip), vehicle: Klucel (hydroxypropylcellulose) (HPC)): 105 % of control | T/C (dose: 60.0 mg/kg/injection, schedule: Q01DX005 (ip), vehicle: saline): 103 % of control | T/C (dose: 120.0 mg/kg/injection, schedule: Q01DX005 (ip), vehicle: Klucel (hydroxypropylcellulose) (HPC)): 115 % of control | T/C (dose: 120.0 mg/kg/injection, schedule: Q01DX005 (ip), vehicle: saline): 108 % of control | T/C (dose: 240.0 mg/kg/injection, schedule: Q01DX005 (ip), vehicle: Klucel (hydroxypropylcellulose) (HPC)): 120 % of control | T/C (dose: 240.0 mg/kg/injection, schedule: Q01DX005 (ip), vehicle: saline): 120 % of control

FC(F)(F)C(Cl)Br (stereo not given)
T/C (dose: 25.0 mg/kg/injection, schedule: Q04DX003 (ip), vehicle: saline): 109 % of control | T/C (dose: 50.0 mg/kg/injection, schedule: Q04DX003 (ip), vehicle: saline): 109 % of control | T/C (dose: 100.0 mg/kg/injection, schedule: Q01DX009 (ip), vehicle: saline): 100 % of control | T/C (dose: 100.0 mg/kg/injection, schedule: Q04DX003 (ip), vehicle: saline): 109 % of control | T/C (dose: 200.0 mg/kg/injection, schedule: Q01DX009 (ip), vehicle: saline): 90 % of control | T/C (dose: 400.0 mg/kg/injection, schedule: Q01DX009 (ip), vehicle: saline): 90 % of control

CC[C@@]1(O)C(=O)OCc2c1cc1n(c2=O)Cc2cc3cc(OC)ccc3nc2-1
T/C (dose: 1.57 mg/kg/injection, schedule: Q04DX003 (ip), vehicle: other): 165 % of control | T/C (dose: 3.13 mg/kg/injection, schedule: Q04DX003 (ip), vehicle: other): 98 % of control

COc1cccc(C)c1NC1=NCCO1
T/C (dose: 0.78 mg/kg/injection, schedule: Q04DX003 (ip), vehicle: saline with Tween-80): 100 % of control | T/C (dose: 1.56 mg/kg/injection, schedule: Q04DX003 (ip), vehicle: saline with Tween-80): 100 % of control | T/C (dose: 3.13 mg/kg/injection, schedule: Q04DX003 (ip), vehicle: saline with Tween-80): 104 % of control

CCOC(CN1Cc2cc(OC)c(OC)cc2CC1c1ccc(OC)c(OC)c1)OCC (stereo not given)
T/C (dose: 60.0 mg/kg/injection, schedule: Q01DX005 (ip), vehicle: saline with Tween-80): 95 % of control | T/C (dose: 120.0 mg/kg/injection, schedule: Q01DX005 (ip), vehicle: saline with Tween-80): 92 % of control

O=C1Nc2cc3c(cc2C(=O)N2C/C(=N/O)CC12)OCO3 (stereo not given)
T/C [1]: 107 % of control | T/C (dose: 100.0 mg/kg/injection, schedule: Q01DX005 (ip), vehicle: saline with Tween-80): 99 % of control | T/C (dose: 200.0 mg/kg/injection, schedule: Q01DX005 (ip), vehicle: saline with Tween-80): 101 % of control

CC1C2OC(=O)C1(C)c1ccccc1C2=O (stereo not given)
T/C (dose: 12.5 mg/kg/injection, schedule: Q01DX001 (ip), vehicle: Klucel (hydroxypropylcellulose) (HPC)): 109 % of control | T/C (dose: 25.0 mg/kg/injection, schedule: Q01DX001 (ip), vehicle: Klucel (hydroxypropylcellulose) (HPC)): 99 % of control | T/C (dose: 50.0 mg/kg/injection, schedule: Q01DX001 (ip), vehicle: Klucel (hydroxypropylcellulose) (HPC)): 103 % of control

O=NN1CCN(N=O)CC1
T/C (dose: 25.0 mg/kg/injection, schedule: Q01DX009 (ip), vehicle: saline with Tween-80): 113 % of control | T/C [2]: 109 % of control | T/C (dose: 50.0 mg/kg/injection, schedule: Q04DX003 (ip), vehicle: saline with Tween-80): 109 % of control | T/C [3]: 104 % of control

CN(CCC1(C)C(=O)CCc2ccccc21)Cc1ccccc1 (stereo not given)
T/C (dose: 12.5 mg/kg/injection, schedule: Q01DX005 (ip), vehicle: saline with Tween-80): 102 % of control | T/C (dose: 25.0 mg/kg/injection, schedule: Q01DX005 (ip), vehicle: saline with Tween-80): 96 % of control | T/C [1]: 100 % of control and 96 % of control

CN(C)C(C)(C#N)C(N)=O (stereo not given)
T/C (dose: 1.56 mg/kg/injection, schedule: Q04DX003 (ip), vehicle: saline): 103 % of control and 93 % of control | T/C (dose: 3.12 mg/kg/injection, schedule: Q04DX003 (ip), vehicle: saline): 101 % of control | T/C (dose: 6.25 mg/kg/injection, schedule: Q04DX003 (ip), vehicle: saline): 100 % of control and 96 % of control and 98 % of control

NC(=O)NC(CC(=O)O)C(=O)O (stereo not given)
T/C [2]: 92 % of control | T/C (dose: 100.0 mg/kg/injection, schedule: Q01DX009 (ip), vehicle: saline with Tween-80): 101 % of control | T/C (dose: 200.0 mg/kg/injection, schedule: Q01DX009 (ip), vehicle: saline with Tween-80): 106 % of control

CCCCCCCCCCCC(=O)NN
T/C [2]: 95 % of control | T/C [3]: 100 % of control | T/C (dose: 200.0 mg/kg/injection, schedule: Q04DX003 (ip), vehicle: saline with Tween-80): 100 % of control

FC(F)(F)c1cccc(OCC2CO2)c1 (stereo not given)
T/C (dose: 50.0 mg/kg/injection, schedule: Q01DX009 (ip), vehicle: Klucel (hydroxypropylcellulose) (HPC)): 102 % of control | T/C (dose: 100.0 mg/kg/injection, schedule: Q01DX009 (ip), vehicle: Klucel (hydroxypropylcellulose) (HPC)): 99 % of control | T/C (dose: 200.0 mg/kg/injection, schedule: Q01DX009 (ip), vehicle: Klucel (hydroxypropylcellulose) (HPC)): 97 % of control
